# From patent publication US20050239754A1 (priority 2003, published 2005)
# Assay: Pseudo-titration in water with IRA-400(OH) anion exchange resin, samples assayed by HPLC
# Format: physicochemical
# Procedure: 60 g of Amberlite IRA400 (OH) resin was prewashed with 4.7 percent (by weight) ammonium hydroxide (50 ml of 28 percent ammonium hydroxide, 250 ml deionized water), followed by extensive washing with deionized water. The final conductivity was 6.1 μS.
# Samples containing about 0.9 g of S-[2-[(1-Iminoethyl)amino]ethyl]-2-methyl-L-cysteine di-hydrochloride in 142 ml HCl/water solution, were concentrated on a rotary evaporator at 60° C. to an oil. To the oil, diluted to 60 ml with deionized water, was added aliquots of 0.5 g of washed anion exchange resin while stirring. At five minutes after each aliquot of resin was added, the solution pH was measured and a sample removed through a syringe filter. A total of 9 g of anion exchange resin was added. The final pH was 10.8. The resin was removed by filtration and the filtrate was concentrated to an oil by rotary evaporation at 60° C.; no solids formed. The starting material, final filtrate and all intermediate samples were assayed by HPLC and ion chromatography for chloride.
# The diamond (solid line) is pH and square (dashed line) is S-[2-[(1-Iminoethyl)amino]ethyl]-2-methyl-L-cysteine (percent initial, by ion chromatography). […] The diamond (solid line) is pH and triangle (broken line) is chloride (by ion chromatography).
# These curves are not true titration curves since samples were withdrawn during the progress of the reaction, and since true equilibrium was not attained before the increments of resin were added. Nevertheless, the graphs of FIG. 2 and FIG. 3 illustrate the expected trends. As resin is added to the S-[2-[(1-Iminoethyl)amino]ethyl]-2-methyl-L-cysteine solution the pH rises with change in slope around pH's of 2, 9 and 11. The pH's of slower rise are representative of the pK's of the carboxylic acid, amine and amidine functional groups, respectively. Above a pH of 10, the S-[2-[(1-Iminoethyl)amino]ethyl]-2-methyl-L-cysteine concentration in solution decreases. At this point, the S-[2-[(1-Iminoethyl)amino]ethyl]-2 methyl-L-cysteine is gaining a net negative charge and is binding to the resin. […] The final chloride content is approximately 0.04 mol equivalents.
# [1] = pseudo-titration with anion exchange resin in water, not true titration curves
structure (smiles),measurement,setting,value
CC(=N)NCCSC[C@](C)(N)C(=O)O [S-[2-[(1-Iminoethyl)amino]ethyl]-2-methyl-L-cysteine],pH of slower rise representative of the pK of the amidine,[1],~11
same,pH of slower rise representative of the pK of the amine,[1],~9
same,pH of slower rise representative of the pK of the carboxylic acid,[1],~2
same,Degradation by HPLC assay of the titration samples,samples up to final pH 10.8,no degradation
